# Measured values as given in PMC11303563 (Communications Medicine, 2024).
# Values joined by “and” are separate entries in the source; they are usually repeats but may differ in a detail not shown here. Equal values may be shown once.
# Key:
# [1] = test system: high-fat diet (HFD)-induced obesity model mice; assay: Hepatic lipid analysis (total lipid, triglyceride, total cholesterol) in HFD mice; assay type: in vivo, C57BL/6J mice; set-up: Liver TC (Fig. 4c), individual mouse values / Liver TG (Fig. 4d), individual mouse values / Total lipid, liver (Fig. 4e), individual mouse values / Mean Diff., ND vs. treated (Fig. 4c) / Mean Diff., Vehicle vs. treated (Fig. 4c) / Mean (Fig. 4c) / Mean Diff., ND vs. treated (Fig. 4d) / Mean Diff., Vehicle vs. treated (Fig. 4d) / Mean (Fig. 4d) / Mean 2 (group mean), Fig. 4e / Mean Diff., Vehicle vs. treatment, Fig. 4e: unit not given here; conditions: for Mean Diff., ND vs. treated (Fig. 4c) / Mean Diff., Vehicle vs. treated (Fig. 4c) / Mean Diff., ND vs. treated (Fig. 4d) / Mean Diff., Vehicle vs. treated (Fig. 4d): Tukey's multiple comparisons test; for Mean (Fig. 4c) / Mean (Fig. 4d) / Mean 2 (group mean), Fig. 4e: group mean, n=10; for Mean 2 (group mean), Fig. 4e: Tukey test details; for Mean Diff., Vehicle vs. treatment, Fig. 4e: vehicle mean 33.43 minus group mean
# Description: Frozen livers were homogenized with chloroform-methanol (2:1), and the chloroform layer into which the liver lipids were extracted was collected. This extract was used to measure hepatic total lipid, triglyceride (TG), and total cholesterol (TC) contents. […] The total liver lipid content was measured according to the method described by Forch et al.[19].
# Fig. 4 Effects of TH analogs on the accumulation of lipids in mice. […] After 3 weeks of injection, serum and liver tissues were collected, and the amount of serum cholesterol (a), serum triglycerides (b), liver cholesterol (c), liver triglycerides (d), and liver total lipids (e) were measured.
# [2] = test system: high-fat diet (HFD)-induced obesity model mice; assay: Oil Red O staining of the liver section; assay type: in vivo, C57BL/6J mice; conditions: i.p. 1 µmol/kg·day, 3 weeks
# Description: 20 µm sections were prepared from frozen liver tissues using Cryostat (CM3050 S, Leica). Sections were affixed to silane-coated glass slides, dried at room temperature, and stored at −80 °C until use. Before staining, sections were fixed with 1% PFA/1 × PBS, pH 7.4 (Gibco) for 5 min, immersed in 1 × PBS for 5 min, distilled water for 5 min, and 60% 2-propanol solution for 1 min. Oil Red O staining solution was prepared by mixing 0.36 g of Oil Red O (Sigma) with 120 mL of 2-propanol and 80 mL of distilled water, allowing the solution to stand at room temperature for 1 h, then filtering the solution and leaving it overnight at 37 °C. Sections were immersed in the Oil Red O staining solution at 37 °C for 15 min, rinsed in 60% 2-propanol for 1 min, and in distilled water for 1 min. Sections were counterstained with Meyer’s hematoxylin. […] The area of red-stained fat droplets was quantified using Image J (National Institutes of Health), and the percentage of the stained area in the total image area was calculated. Nine different parts in three consecutive sections per mouse were analyzed.
# Fig. 5 Oil Red O staining of the liver section of mice treated with TH analogs. […] After three weeks of injection, liver tissues were collected, frozen sections were prepared, and subjected to Oil Red O staining (a). Stained areas were quantified and normalized to the total image area. […]
# [3] = Heart weight (cardiac hypertrophy); conditions: for Heart weight, group mean (Mean 2): n 10, Vehicle mean 136.7; for heart weight vs vehicle: HFD mice, 3 weeks
# Description: Male 7-week-old C57BL/6J mice were obtained from a local supplier (Nihon SLC, Shizuoka, Japan). The mice were individually housed in cages (Innocage; ORIENTAL GIKEN) at 23 °C with a 12-h-light–dark cycle starting at 08:00 a.m. […] The injection was prepared by dissolving the compounds in 0.5 N NaOH at a concentration of 100 mM, which was then further diluted with saline to a concentration of either 0.05 or 0.5 mM. The volume of the solution injected was determined based on the body weight of the animal, measured once a week, with 0.05 and 0.5 mM solutions injected at 0.1 and 1 µmol/kg day, respectively. Each group consisted of 10 animals, except for the ND (n = 8) and HFD with saline (vehicle, n = 9) groups.
# After three weeks of daily injections, the body weights of the mice were measured. […] Subsequently, the animals were euthanized using deep isoflurane anesthesia, and the liver, heart, and epididymal adipose tissues were removed from the body. […] Hearts were weighed and fixed in 4% paraformaldehyde for 48 h in a cassette (Sakura Finetek Japan, Tokyo, Japan).
# Heart weight was measured to assess heart toxicity. Data are shown as the mean ± SEM (n = 8–10). Significant differences among groups are indicated by asterisks (*P < 0.05, and ****P < 0.0001, one-way ANOVA with Tukey’s post-hoc test) (b).
# [4] = HFD mice, i.p., dose not given (0.1 or 1 µmol/kg day), 3 weeks
smiles,measurement,setting,value
Cc1cc(OCC(=O)O)cc(C)c1Cc1ccc(O)c(C(C)C)c1 [GC-1],"Liver TC (Fig. 4c), individual mouse values","[1]; 0.1 µmol, HFD mice",1.641 and 1.677 and 1.869 and 2.323 and 2.266 and 1.713 and 1.915 and 2.417 and 2.05 and 2.041
same,"Liver TG (Fig. 4d), individual mouse values","[1]; 0.1 µmol, HFD mice",24.1421 and 24.9345 and 16.7281 and 53.1111 and 43.7729 and 30.8738 and 30.6856 and 28.2214 and 34.8729 and 73.7669
same,"Total lipid, liver (Fig. 4e), individual mouse values","[1]; 0.1 µmol, HFD mice",14.6 and 17.3 and 14 and 22.6 and 24.3 and 18.1 and 18.3 and 16.9 and 17.5 and 26.9
same,"Liver TC (Fig. 4c), individual mouse values","[1]; 1 µmol, HFD mice",1.533 and 1.874 and 2.437 and 2.533 and 1.78 and 2.383 and 1.435 and 2.474 and 2.396 and 2.183
same,"Liver TG (Fig. 4d), individual mouse values","[1]; 1 µmol, HFD mice",36.2948 and 32.7305 and 46.4896 and 42.7911 and 37.2232 and 76.8394 and 41.2151 and 27.0034 and 47.7732 and 49.1408
same,"Total lipid, liver (Fig. 4e), individual mouse values","[1]; 1 µmol, HFD mice",17.5 and 17.4 and 20.9 and 22.7 and 22.5 and 28.6 and 18.9 and 18.3 and 21 and 19.5
same,"Mean Diff., ND vs. treated (Fig. 4c)",[1]; ND minus 0.1 µmol group,-0.7328
same,"Mean Diff., ND vs. treated (Fig. 4c)",[1]; ND minus 1 µmol group,-0.8444
same,"Mean Diff., Vehicle vs. treated (Fig. 4c)",[1]; Vehicle minus 0.1 µmol group,-0.4289
same,"Mean Diff., Vehicle vs. treated (Fig. 4c)",[1]; Vehicle minus 1 µmol group,-0.5405
same,Mean (Fig. 4c),"[1]; 0.1 µmol, HFD mice",1.991
same,Mean (Fig. 4c),"[1]; 1 µmol, HFD mice",2.103
same,"Mean Diff., ND vs. treated (Fig. 4d)",[1]; ND minus 0.1 µmol group,-7.809
same,"Mean Diff., ND vs. treated (Fig. 4d)",[1]; ND minus 1 µmol group,-15.45
same,"Mean Diff., Vehicle vs. treated (Fig. 4d)",[1]; Vehicle minus 0.1 µmol group,37.27
same,"Mean Diff., Vehicle vs. treated (Fig. 4d)",[1]; Vehicle minus 1 µmol group,29.63
same,Mean (Fig. 4d),"[1]; 0.1 µmol, HFD mice",36.11
same,Mean (Fig. 4d),"[1]; 1 µmol, HFD mice",43.75
same,liver total lipids vs vehicle,[1]; [4],significantly decreased
same,liver triglycerides vs vehicle,[1]; [4],significantly decreased
same,"Mean 2 (group mean), Fig. 4e","[1]; HFD mice, 0.1 µmol",19.05
same,"Mean Diff., Vehicle vs. treatment, Fig. 4e","[1]; HFD mice, 0.1 µmol",14.38
same,"Mean 2 (group mean), Fig. 4e","[1]; HFD mice, 1 µmol",20.73
same,"Mean Diff., Vehicle vs. treatment, Fig. 4e","[1]; HFD mice, 1 µmol",12.7
O=C(O)Cc1cc(C(F)(F)F)c(Cc2ccc(O)c3ccccc23)c(C(F)(F)F)c1 [ZTA-261],Oil Red O-positive area in liver sections vs vehicle,[2],significantly reduced
same,"Heart weight (Fig. 7b), individual animal values",[3]; 0.1 µmol dose group,120.4 and 125.5 and 128.7 and 142.9 and 126.8 and 139.4 and 134.1 and 147.6 and 135.4 and 150.2
same,"Heart weight, Tukey's multiple comparisons test, Mean Diff. (Vehicle vs. compound)",[3]; 0.1 µmol dose group vs. Vehicle,1.622
same,"Heart weight, group mean (Mean 2)",[3]; 0.1 µmol dose group,135.1
same,"Heart weight (Fig. 7b), individual animal values",[3]; 1 µmol dose group,135 and 135.2 and 126.1 and 150.6 and 150.7 and 152.1 and 152.8 and 145.4 and 154.6 and 138.8
same,"Heart weight, Tukey's multiple comparisons test, Mean Diff. (Vehicle vs. compound)",[3]; 1 µmol dose group vs. Vehicle,-7.408
same,"Heart weight, group mean (Mean 2)",[3]; 1 µmol dose group,144.1
same,heart weight vs vehicle,[3]; i.p. 0.1 µmol/kg day,No such effect
same,heart weight vs vehicle,[3]; i.p. 1 µmol/kg day,No such effect
